Assays:
[1] = target: T1, 5-hydroxytryptamine receptor 1A (Homo sapiens) (UniProt P08908); assay: 5HT1A/H Cerep selectivity data (BI); conditions: Compound concentration 20.0 uM
T1 sequence (whole entry): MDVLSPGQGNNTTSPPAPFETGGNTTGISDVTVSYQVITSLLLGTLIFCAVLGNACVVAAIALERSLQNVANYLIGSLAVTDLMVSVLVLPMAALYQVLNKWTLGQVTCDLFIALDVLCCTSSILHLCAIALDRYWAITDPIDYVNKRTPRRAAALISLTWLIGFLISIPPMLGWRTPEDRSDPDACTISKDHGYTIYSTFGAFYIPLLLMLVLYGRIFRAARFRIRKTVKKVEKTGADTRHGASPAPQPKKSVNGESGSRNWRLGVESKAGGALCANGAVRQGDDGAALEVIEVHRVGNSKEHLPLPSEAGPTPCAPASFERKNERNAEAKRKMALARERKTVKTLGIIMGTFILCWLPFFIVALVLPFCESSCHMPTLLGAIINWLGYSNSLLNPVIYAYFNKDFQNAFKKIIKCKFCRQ

[2] = target: Apelin receptor (Homo sapiens) (UniProt P35414); assay: APJH_AGON Cerep selectivity data (BI); conditions: filed as agonist, Compound concentration 20.0 uM
[3] = target: Beta-secretase 1 (Homo sapiens) (UniProt P56817); assay: BACE-1 Cerep selectivity data (BI); conditions: Compound concentration 20.0 uM
[4] = target: Oxysterols receptor LXR-beta (Homo sapiens) (UniProt P55055); assay: LXR_BETAH_AGON Cerep selectivity data (BI); conditions: filed as agonist, Compound concentration 20.0 uM
[5] = target: T2, Muscarinic acetylcholine receptor M1 (Homo sapiens) (UniProt P11229); assay: M1/H Cerep selectivity data (BI); conditions: Compound concentration 20.0 uM
T2 sequence (whole entry): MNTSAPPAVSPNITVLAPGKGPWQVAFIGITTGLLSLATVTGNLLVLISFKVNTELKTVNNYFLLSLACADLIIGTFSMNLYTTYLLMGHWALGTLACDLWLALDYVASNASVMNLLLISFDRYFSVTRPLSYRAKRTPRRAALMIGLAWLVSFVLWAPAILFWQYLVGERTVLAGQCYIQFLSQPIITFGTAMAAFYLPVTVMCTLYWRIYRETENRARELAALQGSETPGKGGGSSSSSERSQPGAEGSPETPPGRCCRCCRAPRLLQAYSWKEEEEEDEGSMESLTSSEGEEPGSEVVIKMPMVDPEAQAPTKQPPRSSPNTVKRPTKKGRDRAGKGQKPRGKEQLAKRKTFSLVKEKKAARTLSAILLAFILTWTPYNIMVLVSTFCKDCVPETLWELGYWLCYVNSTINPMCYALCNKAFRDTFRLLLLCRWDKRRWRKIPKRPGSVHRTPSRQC

[6] = target: T3, Muscarinic acetylcholine receptor M4 (Homo sapiens) (UniProt P08173); assay: M4/H Cerep selectivity data (BI); conditions: Compound concentration 20.0 uM
T3 sequence (whole entry): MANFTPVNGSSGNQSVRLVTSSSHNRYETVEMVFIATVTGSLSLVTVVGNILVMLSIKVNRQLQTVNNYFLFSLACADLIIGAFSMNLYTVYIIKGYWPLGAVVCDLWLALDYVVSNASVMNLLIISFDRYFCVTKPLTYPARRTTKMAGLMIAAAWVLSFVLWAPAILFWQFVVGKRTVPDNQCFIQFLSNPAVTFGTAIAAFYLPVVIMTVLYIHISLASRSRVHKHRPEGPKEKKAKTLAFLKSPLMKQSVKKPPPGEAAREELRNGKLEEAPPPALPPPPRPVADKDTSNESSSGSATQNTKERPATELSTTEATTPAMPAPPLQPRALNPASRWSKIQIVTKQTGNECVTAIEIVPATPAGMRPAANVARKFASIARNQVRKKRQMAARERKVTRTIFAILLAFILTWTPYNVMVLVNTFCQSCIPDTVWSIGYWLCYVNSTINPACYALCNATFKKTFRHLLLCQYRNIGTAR

[7] = target: Mu-type opioid receptor (Homo sapiens) (UniProt P35372); assay: MU/H Cerep selectivity data (BI); conditions: Compound concentration 20.0 uM
[8] = target: Sigma non-opioid intracellular receptor 1 (Homo sapiens) (UniProt Q99720); assay: SIGMA1/HU Eurofins-Panlabs selectivity data (BI); conditions: Compound concentration 10.0 uM
[9] = target: Casein kinase I isoform gamma-3 (Homo sapiens) (UniProt Q9Y6M4); assay: CSNK1G3 Invitrogen selectivity data (BI); conditions: Compound concentration 3.0 uM
[10] = target: T4, Serine/threonine-protein kinase haspin (Homo sapiens) (UniProt Q8TF76); assay: GSG2 Invitrogen selectivity data (BI); conditions: Compound concentration 3.0 uM
T4 sequence (whole entry): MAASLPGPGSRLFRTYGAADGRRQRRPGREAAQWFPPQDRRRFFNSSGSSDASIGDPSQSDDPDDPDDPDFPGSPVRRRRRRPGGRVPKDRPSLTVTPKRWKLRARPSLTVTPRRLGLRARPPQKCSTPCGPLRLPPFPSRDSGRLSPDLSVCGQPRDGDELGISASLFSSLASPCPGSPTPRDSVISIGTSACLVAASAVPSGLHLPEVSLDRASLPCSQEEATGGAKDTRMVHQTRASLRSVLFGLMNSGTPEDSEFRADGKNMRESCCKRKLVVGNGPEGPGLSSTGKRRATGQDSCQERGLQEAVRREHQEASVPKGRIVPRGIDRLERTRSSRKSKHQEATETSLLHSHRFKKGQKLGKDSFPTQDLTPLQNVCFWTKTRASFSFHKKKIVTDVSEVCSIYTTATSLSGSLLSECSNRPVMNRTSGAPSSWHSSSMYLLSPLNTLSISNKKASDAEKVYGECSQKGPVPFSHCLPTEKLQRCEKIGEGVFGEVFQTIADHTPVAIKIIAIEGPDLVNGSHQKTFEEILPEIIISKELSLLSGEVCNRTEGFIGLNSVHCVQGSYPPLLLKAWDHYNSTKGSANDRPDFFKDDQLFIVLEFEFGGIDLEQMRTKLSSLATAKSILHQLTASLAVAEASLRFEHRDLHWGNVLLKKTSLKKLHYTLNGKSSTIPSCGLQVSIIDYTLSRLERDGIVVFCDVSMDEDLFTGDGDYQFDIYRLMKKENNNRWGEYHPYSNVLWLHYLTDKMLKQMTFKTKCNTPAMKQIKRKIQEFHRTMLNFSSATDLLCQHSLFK

[11] = target: Tyrosine-protein kinase Lck (Homo sapiens) (UniProt P06239); assay: LCK Invitrogen selectivity data (BI); conditions: Compound concentration 3.0 uM
[12] = target: Maternal embryonic leucine zipper kinase (Homo sapiens) (UniProt Q14680); assay: MELK Invitrogen selectivity data (BI); conditions: Compound concentration 3.0 uM
[13] = test system: Platelet-derived growth factor receptor alpha (Homo sapiens), P16234 [V561D]; assay: PDGFRA V561D Invitrogen selectivity data (BI); conditions: Compound concentration 3.0 uM
[14] = target: Phosphatidylinositol 4-kinase alpha (Homo sapiens) (UniProt P42356); assay: PI4KA Invitrogen selectivity data (BI); conditions: Compound concentration 3.0 uM
[15] = target: Rho-associated protein kinase 2 (Homo sapiens) (UniProt O75116); assay: ROCK2 Invitrogen selectivity data (BI); conditions: Compound concentration 3.0 uM
[16] = target: Serine/threonine-protein kinase SIK2 (Homo sapiens) (UniProt Q9H0K1); assay: SNF1LK2 Invitrogen selectivity data (BI); conditions: Compound concentration 3.0 uM
[17] = target: Proto-oncogene tyrosine-protein kinase Src (Homo sapiens) (UniProt P12931); assay: SRC Invitrogen selectivity data (BI); conditions: Compound concentration 3.0 uM

Measured: residual activity

Sequence of Casein kinase I isoform gamma-3 (Homo sapiens) (Q9Y6M4 whole entry, looked up, canonical isoform): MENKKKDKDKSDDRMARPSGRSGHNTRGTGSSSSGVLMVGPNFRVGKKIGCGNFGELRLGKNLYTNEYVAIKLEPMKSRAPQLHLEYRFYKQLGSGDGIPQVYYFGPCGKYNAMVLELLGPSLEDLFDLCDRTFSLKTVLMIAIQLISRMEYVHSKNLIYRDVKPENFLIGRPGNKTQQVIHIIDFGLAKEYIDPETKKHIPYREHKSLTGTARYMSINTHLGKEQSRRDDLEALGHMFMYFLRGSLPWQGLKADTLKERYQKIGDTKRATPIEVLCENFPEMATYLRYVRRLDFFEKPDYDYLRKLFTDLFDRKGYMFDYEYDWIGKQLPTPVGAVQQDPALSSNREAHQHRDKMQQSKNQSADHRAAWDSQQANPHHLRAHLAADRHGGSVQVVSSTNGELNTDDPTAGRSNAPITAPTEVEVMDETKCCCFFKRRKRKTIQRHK
Sequence of Rho-associated protein kinase 2 (Homo sapiens) (O75116 whole entry, looked up): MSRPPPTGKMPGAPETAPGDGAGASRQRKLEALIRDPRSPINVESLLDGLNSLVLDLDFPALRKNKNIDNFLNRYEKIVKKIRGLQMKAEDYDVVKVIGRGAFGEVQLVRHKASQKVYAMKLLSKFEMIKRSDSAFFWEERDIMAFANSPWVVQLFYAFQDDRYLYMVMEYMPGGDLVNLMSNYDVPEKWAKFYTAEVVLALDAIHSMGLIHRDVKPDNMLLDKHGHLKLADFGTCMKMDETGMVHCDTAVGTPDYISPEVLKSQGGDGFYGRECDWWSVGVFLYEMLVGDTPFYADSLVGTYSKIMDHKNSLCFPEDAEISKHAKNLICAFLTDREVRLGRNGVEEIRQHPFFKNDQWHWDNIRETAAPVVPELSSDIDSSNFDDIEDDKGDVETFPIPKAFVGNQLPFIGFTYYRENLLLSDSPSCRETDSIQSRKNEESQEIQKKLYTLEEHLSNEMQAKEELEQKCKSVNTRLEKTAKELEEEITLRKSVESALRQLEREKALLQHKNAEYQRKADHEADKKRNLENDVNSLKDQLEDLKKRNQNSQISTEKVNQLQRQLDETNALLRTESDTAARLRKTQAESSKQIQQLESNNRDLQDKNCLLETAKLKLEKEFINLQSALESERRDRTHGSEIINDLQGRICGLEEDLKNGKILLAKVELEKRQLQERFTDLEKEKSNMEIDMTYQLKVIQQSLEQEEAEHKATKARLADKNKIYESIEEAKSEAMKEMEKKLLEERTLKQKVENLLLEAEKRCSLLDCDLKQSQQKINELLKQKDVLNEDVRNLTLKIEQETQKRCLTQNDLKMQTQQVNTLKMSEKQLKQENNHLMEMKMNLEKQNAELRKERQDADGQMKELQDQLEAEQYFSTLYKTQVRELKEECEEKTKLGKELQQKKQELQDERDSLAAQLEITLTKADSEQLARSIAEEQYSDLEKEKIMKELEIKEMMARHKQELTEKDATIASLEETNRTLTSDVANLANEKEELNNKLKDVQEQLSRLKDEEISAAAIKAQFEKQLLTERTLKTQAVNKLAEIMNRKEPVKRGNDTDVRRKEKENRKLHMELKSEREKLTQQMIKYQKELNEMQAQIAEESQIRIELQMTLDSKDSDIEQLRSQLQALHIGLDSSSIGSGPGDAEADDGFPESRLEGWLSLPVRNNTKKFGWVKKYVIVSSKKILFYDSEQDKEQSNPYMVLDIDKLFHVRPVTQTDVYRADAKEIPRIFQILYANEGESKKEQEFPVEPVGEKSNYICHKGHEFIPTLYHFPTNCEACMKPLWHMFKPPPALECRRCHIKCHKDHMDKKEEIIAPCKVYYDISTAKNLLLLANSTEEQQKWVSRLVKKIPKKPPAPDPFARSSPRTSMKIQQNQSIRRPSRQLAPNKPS
Sequence of Beta-secretase 1 (Homo sapiens) (P56817 whole entry): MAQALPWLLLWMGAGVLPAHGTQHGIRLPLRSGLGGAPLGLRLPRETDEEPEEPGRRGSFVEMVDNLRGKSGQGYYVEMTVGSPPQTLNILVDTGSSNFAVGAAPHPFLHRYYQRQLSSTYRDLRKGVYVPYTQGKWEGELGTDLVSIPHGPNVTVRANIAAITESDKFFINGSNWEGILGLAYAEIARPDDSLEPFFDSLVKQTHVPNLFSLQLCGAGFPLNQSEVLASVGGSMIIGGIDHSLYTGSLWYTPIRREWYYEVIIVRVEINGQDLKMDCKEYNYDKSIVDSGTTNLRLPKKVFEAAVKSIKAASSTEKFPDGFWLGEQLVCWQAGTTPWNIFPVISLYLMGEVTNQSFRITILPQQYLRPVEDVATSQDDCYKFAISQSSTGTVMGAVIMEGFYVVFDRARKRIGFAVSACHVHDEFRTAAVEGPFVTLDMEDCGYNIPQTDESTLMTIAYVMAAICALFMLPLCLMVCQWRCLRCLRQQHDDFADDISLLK
Sequence of Mu-type opioid receptor (Homo sapiens) (P35372 whole entry): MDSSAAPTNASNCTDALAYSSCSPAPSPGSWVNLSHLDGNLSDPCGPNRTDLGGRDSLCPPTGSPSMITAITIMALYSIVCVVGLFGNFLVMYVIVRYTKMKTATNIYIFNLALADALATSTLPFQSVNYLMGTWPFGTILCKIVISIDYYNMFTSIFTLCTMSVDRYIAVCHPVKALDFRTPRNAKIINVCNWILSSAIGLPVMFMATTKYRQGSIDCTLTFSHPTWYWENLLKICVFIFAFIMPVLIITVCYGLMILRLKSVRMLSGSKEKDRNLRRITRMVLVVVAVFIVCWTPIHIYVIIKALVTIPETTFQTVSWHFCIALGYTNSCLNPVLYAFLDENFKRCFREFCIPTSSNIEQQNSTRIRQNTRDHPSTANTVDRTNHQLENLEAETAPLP
Sequence of Tyrosine-protein kinase Lck (Homo sapiens) (P06239 2-509 limits assumed): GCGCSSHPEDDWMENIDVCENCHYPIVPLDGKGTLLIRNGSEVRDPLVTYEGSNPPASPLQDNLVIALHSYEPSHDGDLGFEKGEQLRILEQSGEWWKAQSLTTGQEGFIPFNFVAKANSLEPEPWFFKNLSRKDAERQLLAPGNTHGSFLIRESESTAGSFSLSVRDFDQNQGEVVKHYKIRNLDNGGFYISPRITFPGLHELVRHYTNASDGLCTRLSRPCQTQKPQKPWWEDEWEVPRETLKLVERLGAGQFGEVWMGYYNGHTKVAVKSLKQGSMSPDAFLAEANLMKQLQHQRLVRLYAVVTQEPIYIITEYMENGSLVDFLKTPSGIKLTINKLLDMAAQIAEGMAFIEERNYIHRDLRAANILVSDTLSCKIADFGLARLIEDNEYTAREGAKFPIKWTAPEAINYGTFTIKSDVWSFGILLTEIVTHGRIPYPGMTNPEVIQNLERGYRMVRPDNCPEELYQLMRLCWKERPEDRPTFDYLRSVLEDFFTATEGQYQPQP
Sequence of Proto-oncogene tyrosine-protein kinase Src (Homo sapiens) (P12931 2-536 limits assumed): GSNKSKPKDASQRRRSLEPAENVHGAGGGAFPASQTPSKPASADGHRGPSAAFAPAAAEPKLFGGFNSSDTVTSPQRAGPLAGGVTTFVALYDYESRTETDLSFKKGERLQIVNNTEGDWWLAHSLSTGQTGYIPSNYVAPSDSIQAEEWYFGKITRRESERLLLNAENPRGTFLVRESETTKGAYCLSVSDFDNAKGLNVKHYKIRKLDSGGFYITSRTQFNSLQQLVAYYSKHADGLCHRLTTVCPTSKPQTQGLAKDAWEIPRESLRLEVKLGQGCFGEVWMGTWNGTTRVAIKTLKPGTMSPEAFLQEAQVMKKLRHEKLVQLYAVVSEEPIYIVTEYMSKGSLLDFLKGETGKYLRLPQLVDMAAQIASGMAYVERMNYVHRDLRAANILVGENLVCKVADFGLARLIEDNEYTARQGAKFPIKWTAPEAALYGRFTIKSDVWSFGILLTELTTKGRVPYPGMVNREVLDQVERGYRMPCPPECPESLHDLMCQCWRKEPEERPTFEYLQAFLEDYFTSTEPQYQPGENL
Sequence of Platelet-derived growth factor receptor alpha (Homo sapiens), P16234 [V561D] (P16234 whole entry V561D): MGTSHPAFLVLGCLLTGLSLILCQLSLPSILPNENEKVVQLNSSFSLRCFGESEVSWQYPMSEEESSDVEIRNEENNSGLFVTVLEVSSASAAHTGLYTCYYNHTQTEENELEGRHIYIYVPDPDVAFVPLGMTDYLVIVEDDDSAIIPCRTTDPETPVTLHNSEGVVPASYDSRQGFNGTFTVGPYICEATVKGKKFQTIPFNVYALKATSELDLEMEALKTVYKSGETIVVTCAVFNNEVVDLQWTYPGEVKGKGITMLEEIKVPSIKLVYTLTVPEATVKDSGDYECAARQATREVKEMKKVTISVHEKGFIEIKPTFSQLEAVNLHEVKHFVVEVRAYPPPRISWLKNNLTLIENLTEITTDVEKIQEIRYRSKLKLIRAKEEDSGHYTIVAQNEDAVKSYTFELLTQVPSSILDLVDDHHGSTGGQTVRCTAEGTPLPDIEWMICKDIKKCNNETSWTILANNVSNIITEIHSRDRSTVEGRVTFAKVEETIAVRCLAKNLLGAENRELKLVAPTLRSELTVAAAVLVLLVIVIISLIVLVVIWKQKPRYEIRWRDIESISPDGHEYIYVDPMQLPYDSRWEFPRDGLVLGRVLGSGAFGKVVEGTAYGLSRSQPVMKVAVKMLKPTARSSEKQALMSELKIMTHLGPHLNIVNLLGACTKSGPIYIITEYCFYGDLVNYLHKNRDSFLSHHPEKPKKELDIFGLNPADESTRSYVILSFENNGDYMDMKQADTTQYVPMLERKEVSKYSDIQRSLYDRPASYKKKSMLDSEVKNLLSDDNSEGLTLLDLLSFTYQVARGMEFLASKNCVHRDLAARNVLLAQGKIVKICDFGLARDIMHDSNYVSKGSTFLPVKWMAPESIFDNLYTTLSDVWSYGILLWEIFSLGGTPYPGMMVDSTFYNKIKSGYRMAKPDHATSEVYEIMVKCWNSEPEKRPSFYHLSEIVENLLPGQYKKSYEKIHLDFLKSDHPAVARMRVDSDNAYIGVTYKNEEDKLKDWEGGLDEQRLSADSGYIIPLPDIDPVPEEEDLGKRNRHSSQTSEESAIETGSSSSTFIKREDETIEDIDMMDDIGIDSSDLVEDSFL

CN(C)C(=O)Cn1cc(-c2nc([C@@](C)(c3ccc(-c4cnc(N)nc4)cc3)C3CC3)no2)cn1 [BI 665915]
inactive: [1] 77% | [2] 101% | [3] 102% | [4] 118% | [5] 99% | [6] 103% | [7] 103% | [8] 108% | [9] 99% | [10] 100% | [11] 91.5% | [12] 94% | [13] 85% | [14] 106% | [15] 102% | [16] 97.5% | [17] 90.5%
